Entries after “also recorded” stand apart in the source; their conditions may differ. Non-standard residues stand in square brackets, D forms with d. Residues, ends and D or L forms follow the SMILES beside them. dDip = N[C@@H](C(=O)O)C(c1ccccc1)c1ccccc1
Assays:
apoE deficient mice = assay: In vivo activity in apoE deficient mice: HDL inflammatory index; settings: 1 mg/kg subcutaneously, fasting female apoE deficient mice, HDL isolated 6 h after dose, normalized to LDL; Figure 3
Protocol: As previously described, [64], HAEC cells were treated with native LDL (250 µg/ml) in the absence or presence of HDL or tested peptides for 8 h. After these cultures were washed, the medium was replaced by fresh Medium 199 and the cultures were incubated for an additional 8 h. This culture medium was collected and assayed for monocyte chemotactic activity using chambers purchased from Neuroprobe (Cabin John, MD). After monocytes were added to the upper compartment, the chamber was incubated for 60 min at 37°C and subsequently disassembled. The membrane was rinsed, air dried, fixed with 1% glutaraldehyde, stained with 0.1% crystal violet dye, and 12 standardized high power fields were examined microscopically. The number of migrated monocytes was expressed as the mean ±SD of monocytes counted. Values obtained in the absence of HDL were normalized to a value of 1.0. Normalized values >1.0 after HDL addition were considered to be pro-inflammatory, and values <1.0 as being anti-inflammatory.
ApoE null mice on a C57BL/6J background, originally from Jackson Laboratories (Bar Harbor, ME), were maintained in a breeding colony in the Department of Laboratory and Animal Medicine at the David Geffen School of Medicine at UCLA. The mice were maintained on a chow diet (Ralston Purina, St. Louis, MO).
Six hours later, and with continued fasting, blood was removed from the retro-orbital sinus under mild isoflurane anesthesia, and anticoagulated with heparin (2.5 U/ml). Plasma was obtained and fractionated by FPLC. HDL-containing fractions were tested in HAEC cultures for their ability to inhibit LDL-induced monocyte chemotactic activity. All procedures conformed to regulations of the UCLA Animal Research Committee. An HDL inflammatory index was determined using the standard monocyte chemotaxis assay. Indices >1 were interpreted as pro-inflammatory, and indices <1 as anti-inflammatory.

SPR binding to KOdiA-PC = assay: SPR binding to KOdiA-PC
Protocol: (§1) Binding experiments were done by surface plasmon resonance (SPR) on a BIAcore 3000 system (BiaCore AB, Piscataway, NJ). Peptide ligands and apoA-I were immobilized on a BIAcore CM5 sensor chip activated per the manufacturer's protocol with N-hydroxysuccinimide and 1-ethyl-3-(3-[…]) carbodiimide. After achieving adequate immobilization, the activated sensor surface was blocked with ethanolamine.
(§2) Lipid stock solutions were prepared in absolute ethanol and then diluted into a standard BIAcore buffer (HBS-EP), containing 10 mM HEPES, pH 7.4, 150 mM NaCl, 3 mM EDTA and 0.005% (v/v) surfactant P20. Lipid concentrations used in the binding studies were selected to give binding responses of 30-500 resonance units. Lipid stock solutions were prepared at 1 mg/ml in ethanol. […] Ethanol-free HBS-EP buffer was used during the dissociation phase. Lipid binding was measured by observing the change in the SPR angle as 150 µl of lipid analyte (various concentrations) in HBS-EP buffer flowed over the biosensor for 3 min at 50 µl/min. Biosensors were washed with 25 or 50% ethanol to regenerate them between binding studies. SPR data were corrected for background binding to the matrix of the chip (“blank” channel) and analyzed with BIAevaluation 4.1 software (Biacore, Piscataway, NJ).

SPR binding to 9(S)-HODE = assay: SPR binding to 9(S)-HODE
Protocol: as §1, §2

[1] = SPR binding to 4β-hydroxycholesterol; settings: peptide immobilized on CM5 chip, sterol in HBS-EP pH 7.4, mean ± SEM
Protocol: as §1, §2

[2] = SPR binding to 12(S)-HPETE
Protocol: as §1, §2

SPR binding to PEIPC = assay: SPR binding to PEIPC
Protocol: as §1, §2

[3] = SPR binding to 24(S)-hydroxycholesterol
Protocol: as §1, §2

SPR binding to PGPC = assay: SPR binding to PGPC
Protocol: as §1, §2

Bovine albumin = biological target: T1, Bovine albumin (Bos taurus, UniProt P02769); assay: SPR binding to bovine albumin (control); settings: peptide immobilized on CM5 chip, analyte in HBS-EP pH 7.4, mean ± SEM
T1 construct: purchased Sigma-Aldrich
Protocol: as §1, §2

[4] = SPR binding to 22(S)-hydroxycholesterol
Protocol: as §1, §2

[5] = SPR binding to 15(S)-HPETE
Protocol: as §1, §2

[6] = SPR binding to 5(S)-HPETE
Protocol: as §1, §2

[7] = SPR binding to arachidonic acid
Protocol: as §1, §2

SPR binding to POVPC = assay: SPR binding to POVPC
Protocol: as §1, §2

[8] = SPR binding to linoleic acid
Protocol: as §1, §2

[9] = SPR binding to 20(S)-hydroxycholesterol
Protocol: as §1, §2

[10] = SPR binding to 15(S)-HETE
Protocol: as §1, §2

[11] = SPR binding to palmitic acid
Protocol: as §1, §2

[12] = SPR binding to 25-hydroxycholesterol; settings: peptide immobilized on CM5 chip, sterol in HBS-EP pH 7.4, mean ± SEM
Protocol: as §1, §2

[13] = SPR binding to 12(S)-HETE
Protocol: as §1, §2

[14] = SPR binding to 13(S)-HPODE
Protocol: as §1, §2

[15] = SPR binding to 13(S)-HODE
Protocol: as §1, §2

[16] = SPR binding to cholesterol; settings: peptide immobilized on CM5 chip, sterol in HBS-EP pH 7.4, mean ± SEM
Protocol: as §1, §2

[17] = KD(D-4F)/KD(OxP-11D), >1: OxP-11D binds with higher affinity
[18] = SPR, peptide immobilized on CM5 chip, lipid in HBS-EP pH 7.4, mean ± SEM
[19] = based on the KD ratios of Table 3
[20] = SPR, peptide immobilized on CM5 chip, sterol in HBS-EP pH 7.4, mean ± SEM

T1 sequence (P02769 25-607): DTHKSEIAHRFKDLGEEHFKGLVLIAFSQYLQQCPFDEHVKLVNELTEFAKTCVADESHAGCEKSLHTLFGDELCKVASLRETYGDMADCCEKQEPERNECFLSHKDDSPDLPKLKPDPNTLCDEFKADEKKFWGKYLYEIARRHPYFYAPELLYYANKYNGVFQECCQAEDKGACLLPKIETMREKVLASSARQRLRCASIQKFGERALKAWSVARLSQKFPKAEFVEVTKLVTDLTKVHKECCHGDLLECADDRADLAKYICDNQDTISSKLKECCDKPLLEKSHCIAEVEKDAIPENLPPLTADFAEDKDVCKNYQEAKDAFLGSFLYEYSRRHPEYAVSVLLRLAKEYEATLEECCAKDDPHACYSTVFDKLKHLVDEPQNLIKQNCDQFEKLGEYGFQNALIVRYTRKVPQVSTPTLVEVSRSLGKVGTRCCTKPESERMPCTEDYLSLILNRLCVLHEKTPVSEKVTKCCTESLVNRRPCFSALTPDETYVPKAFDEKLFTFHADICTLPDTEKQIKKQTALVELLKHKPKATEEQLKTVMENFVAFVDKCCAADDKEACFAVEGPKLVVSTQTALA

Compound: CC(C)C[C@@H](NC(=O)CNC(=O)[C@H](NC(=O)[C@H](NC(=O)[C@@H](CCC(=O)O)NC(=O)[C@H](N)CCCNC(=N)N)C(c1ccccc1)c1ccccc1)[C@H](C)O)C(=O)N[C@H](C)C(=O)N[C@H](Cc1c[nH]c2ccccc12)C(=O)N[C@H](CCC(=O)O)C(=O)N[C@H](Cc1c[nH]c2ccccc12)C(=O)N[C@H](Cc1c[nH]c2ccccc12)C(=O)N[C@H](CCCNC(=N)N)C(=O)N[C@@H](C(=O)N[C@@H](C(N)=O)C(C)C)[C@H](C)O [OxP-11D] (H-[dR][dE][dDip][dT]G[dL][dA][dW][dE][dW][dW][dR][dT][dV]-NH2; N-terminus assumed)
- HDL Inflammatory Index in vivo (apoE deficient mice): activity rivaled D-4F; also recorded: equally effective
- D-4F/OxP-11D KD Ratio, KOdiA-PC (SPR binding to KOdiA-PC; [17]): 0.003
- Kd (SPR binding to KOdiA-PC; [18]): 190 nM
- D-4F/OxP-11D KD Ratio, 9(S)-HODE (SPR binding to 9(S)-HODE; [17]): 0.714
- Kd (SPR binding to 9(S)-HODE; [18]): 21 nM
- KD ± SEM, 4β-hydroxycholesterol [1]: BND
- D-4F/OxP-11D KD Ratio, 12(S)-HPETE [2, 17]: 5.000
- Kd ([2]; SPR binding isotherm, Figure 5C, biosensor presented 4686 RU of OxP-11D): 34.4 ± 10.1 nM
- Affinity for 12(S)-HPETE relative to affinity for arachidonic acid [2, 19]: approximately 28.5 fold
- D-4F/OxP-11D KD Ratio, PEIPC (SPR binding to PEIPC; [17]): 0.005
- Kd (SPR binding to PEIPC; SPR binding isotherm, Figure 5B, biosensor presented 4686 RU of OxP-11D): 12.4 ± 4.4 nM
- D-4F/OxP-11D KD Ratio, 24(S)-hydroxycholesterol [3, 17]: 17.917
- Kd [3, 20]: 240 nM
- D-4F/OxP-11D KD Ratio, PGPC (SPR binding to PGPC; [17]): 0.002
- Kd (SPR binding to PGPC; [18]): 3200 nM
- Kd (Bovine albumin): 690 nM
- D-4F/OxP-11D KD Ratio, 22(S)-hydroxycholesterol [4, 17]: 33.333
- Kd [4, 20]: 450 nM
- D-4F/OxP-11D KD Ratio, 15(S)-HPETE [5, 17]: 1.133
- Kd [5, 18]: 45 nM
- D-4F/OxP-11D KD Ratio, 5(S)-HPETE [6, 17]: 1.059
- Kd ([6]; SPR binding isotherm, Figure 5D, biosensor presented 4686 RU of OxP-11D): 16.9 ± 4.8 nM
- Affinity for 5(S)-HPETE relative to affinity for arachidonic acid [6, 19]: approximately 57 fold
- D-4F/OxP-11D KD Ratio, arachidonic acid [7, 17]: 0.012
- Kd [7, 18]: 970 nM
- D-4F/OxP-11D KD Ratio, POVPC (SPR binding to POVPC; [17]): 0.008
- Kd (SPR binding to POVPC; [18]): 300 nM
- D-4F/OxP-11D KD Ratio, linoleic acid [8, 17]: 0.025
- Kd [8, 18]: 600 nM
- D-4F/OxP-11D KD Ratio, 20(S)-hydroxycholesterol [9, 17]: 7.647
- Kd [9, 20]: 510 nM
- D-4F/OxP-11D KD Ratio, 15(S)-HETE [10, 17]: 0.236
- Kd [10, 18]: 93 nM
- D-4F/OxP-11D KD Ratio, palmitic acid [11, 17]: 2.030
- Kd [11, 18]: 330 nM
- KD ± SEM, 25-hydroxycholesterol [12]: BND
- D-4F/OxP-11D KD Ratio, 12(S)-HETE [13, 17]: 0.375
- Kd [13, 18]: 48 nM
- D-4F/OxP-11D KD Ratio, 13(S)-HPODE [14, 17]: 0.677
- Kd [14, 18]: 31 nM
- D-4F/OxP-11D KD Ratio, 13(S)-HODE [15, 17]: 2.895
- Kd [15, 18]: 3.8 nM
- Kd [16]: 360 nM

Reference: paper PMC2854715, “Oxpholipin 11D: An Anti-Inflammatory Peptide That Binds Cholesterol and Oxidized Phospholipids” (PLoS ONE, 2010)
